Patent EP0583821A1, “Atriopeptins, guanylate cyclase activators, and phosphodiesterase inhibitors as treatment for glaucoma, hydrocephalus and cerebral edema (cranial fluid volume dysfunction)” (THE GENERAL HOSPITAL CORPORATION, priority 1987, dated 1988)

What was measured:
[1] = test system: albino rabbits; assay: Intraocular pressure after unilateral intravitreal injection; format: in vivo, rabbit
Protocol: The measurement of intraocular pressure (IOP), was performed using procedures similar to those described in Nathanson, Brit. J. Pharmacol., 73:97 (1981) and Nathanson, Current Eye Res., 4:191 (1985). Briefly, male (3-5 kg), New Zealand white rabbits were housed under standard conditions and exposed to a 12 hr light-dark cycle. IOP was measured with a Perkins applanation tonometer after topical anesthesia with 0.4% benoxinate (and 0.25% sodium fluorescein). The tonometer had been calibrated previously by connecting the anterior chamber of enucleated rabbit eyes to a manometer (and reservoir) and taking tonometer readings at different pressures. A number of preliminary IOP readings were made in order to accommodate the animals to the measurement procedure. Readings were then taken just prior to drug or vehicle injection and at 3, 9, 20, 27, 44, 51, 72, and 144 hours post-injection.
Following topical anesthesia with 0.4% benoxinate, rabbits received rat atrial natriuretic peptide 1-28 (rANP) via a 10 microliter, intravitreal injection, through a 30g 1/2" needle, the tip of which was positioned at the approximate center of the eye. Drug was dissolved in a solution of artificial aqueous humor containing (in mmol/liter): NaCl 130, KCl 2.7, […] 18.3, MgCl₂ 1.33, CaCl₂ 1.5, Glucose 10, HEPES 20, and L-ascorbic acid, 2.5. The contralateral eye received a 10 microliter injection of vehicle alone. In order to evaluate the possible effects of intravitreal injection, per se, on IOP, additional rabbits received a 10 microliter intravitreal injection of vehicle in one eye only.
The contralateral eye received intravitreal injection of vehicle alone. Over a period of 9 hours, the ipsilateral eyes underwent a marked decline in pressure of about 5mm (Hg). This degree of hypotension persisted until about 48 hours post-injection and then underwent a slow recovery over the following four days. The decrease in pressure, compared with pre-injection IOP, was statistically significant at all time points from 3 to 72 hours post-injection. Values shown are mean ± SEM. Filled circles represent the IOP in the ipsilateral eye; open circles represent the IOP in the contralateral eye. *(p < .05); **(p < .01), for paired Students T-test relative to preinjection pressure (time 0). […] During the entire period, no affect on pupillary diameter of either the ipsilateral or contralateral eye was noted.
This contralateral decrease was statistically significant (p <.05 vs. pre-injection IOP) at 20 and 44 hours following injection. […]

[2] = molecular target: T1, guanylate cyclase (Oryctolagus cuniculus, UniProt G1TXB5); assay: Guanylate cyclase in membranes of ventral superior sagittal dural sinus (arachnoid villi); format: biochemical, pig or rabbit; conditions: small stimulation only at high concentrations; 4 min
T1 sequence (G1TXB5 28-1056): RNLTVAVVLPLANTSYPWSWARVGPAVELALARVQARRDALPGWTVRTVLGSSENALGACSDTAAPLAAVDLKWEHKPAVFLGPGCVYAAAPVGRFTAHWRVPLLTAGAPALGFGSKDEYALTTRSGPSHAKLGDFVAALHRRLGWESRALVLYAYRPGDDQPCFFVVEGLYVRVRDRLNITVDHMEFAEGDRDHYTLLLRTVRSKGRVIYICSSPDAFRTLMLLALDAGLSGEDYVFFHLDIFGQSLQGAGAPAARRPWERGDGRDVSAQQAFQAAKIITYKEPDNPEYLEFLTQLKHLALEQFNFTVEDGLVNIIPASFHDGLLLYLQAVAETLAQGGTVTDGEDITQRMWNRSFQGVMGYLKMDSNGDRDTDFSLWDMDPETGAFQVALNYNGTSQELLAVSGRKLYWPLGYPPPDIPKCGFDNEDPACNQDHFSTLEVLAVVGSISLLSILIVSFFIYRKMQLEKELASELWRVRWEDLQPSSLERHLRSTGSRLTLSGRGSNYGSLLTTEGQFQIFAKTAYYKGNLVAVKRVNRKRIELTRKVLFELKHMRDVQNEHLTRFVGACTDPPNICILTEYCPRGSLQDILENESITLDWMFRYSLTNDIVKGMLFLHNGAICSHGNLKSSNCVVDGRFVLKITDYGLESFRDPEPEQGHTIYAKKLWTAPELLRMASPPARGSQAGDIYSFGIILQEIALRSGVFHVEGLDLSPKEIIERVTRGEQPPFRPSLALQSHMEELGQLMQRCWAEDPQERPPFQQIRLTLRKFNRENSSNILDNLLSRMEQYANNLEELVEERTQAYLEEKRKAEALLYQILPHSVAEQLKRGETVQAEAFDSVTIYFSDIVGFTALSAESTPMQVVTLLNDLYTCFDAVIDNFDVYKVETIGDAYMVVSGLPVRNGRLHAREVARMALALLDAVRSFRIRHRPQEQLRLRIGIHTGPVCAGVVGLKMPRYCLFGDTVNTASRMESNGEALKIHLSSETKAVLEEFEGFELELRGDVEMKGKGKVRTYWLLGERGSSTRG
Protocol: (§1) The effect of rANP on membrane-bound guanylate cyclase and adenylate cyclase activity in various brain-barrier tissues and tissue fractions from rabbit was compared with its activity in cerebrum and cerebellum. Guanylate cyclase was measured as the rate of cyclic GMP formation by modifications of the technique of Waldman et al., supra, incorporated herein by reference. Briefly, tissues were homogenized (10 mg wet weight per milliliter) in 50 mM tris-HCl, pH 8.0, 1 mM EDTA, 1 mM dithiothreitol, and 250 mM sucrose and centrifuged at 100,000g to obtain a P1 pellet. Reaction tubes contained (in 0.3 ml), 50 mM tris, pH 7.6, 6 mM MnCl₂, 0.5 mM 3-isobutyl, 1-methylxanthine (IBMX), 10 mM theophylline, 3 mM GTP, hormone (in 0.03 ml containing 2.5 mM ascorbic acid and 0.1% bovine serum albumin), and 0.06 ml of P1 fraction (40 to 60 ug of protein). The reaction (4 minutes at 30°C) was started by addition of GTP and terminated by addition of 0.3 ml of 150 mM sodium acetate (pH 4.0) and boiling for 3 minutes. Cyclic GMP formed was subsequently measured by radioimmunoassay as described in example 6, infra. Under these conditions, guanylate cyclase activity was linear with time and tissue concentration. Adenylate cyclase activity in P1 fractions was measured according to the method described by Nathanson, et al., Science; 204:843 (1979); Mol. Pharmacol. 18:199 (1980), see Figure 1C . […] Neurosci. […]

[3] = test system: guanylate cyclase; assay: Guanylate cyclase in membrane fractions of cerebral cortex; format: biochemical; conditions: rabbit or pig cerebral cortex membrane fractions
Protocol: as §1

For “Ser-Leu-Arg-Arg-atriopeptin III (APIII) [rANP 1-28]”, the “persistence of hypotension post-injection” value ([1]; 0.3 nmoles intravitreal) was “about 48 hours”, the “IOP in the contralateral, vehicle-injected eye” value ([1]; 0.3 nmoles intravitreal in ipsilateral eye) was “also showed a decrease” and the “decline in intraocular pressure, ipsilateral eye” value ([1]; 0.3 nmoles intravitreal, eight albino rabbits, over a period of 9 hours) was “about 5 mm (Hg)”. For the same substance, the “effect on pupillary diameter” value ([1]; ipsilateral or contralateral eye, entire period) was “no affect”, the Ka [2] was > 1000 nM and the “stimulation of guanylate cyclase activity” value [3] was “no stimulation”.
